Reference: patent EP0005186A1, “3-Alkyl-5-(2-hydroxystyryl)-isoxazoles and process for their preparation” (BASF Aktiengesellschaft, priority 1978, dated 1979)

Assays:
[1] = system: Isoproterenol--Tachycardie der narkotisierten Katze; test: beta-sympatholytic effect on isoproterenol tachycardia in the anaesthetised cat; type: in vivo; conditions: for ß-Sympatholytische Wirkung R.W. (Relative Wirksamkeit): Propranolol = 1,00; for ED50: Felis catus, iv, read-out: ß-Sympatholytische Wirkung ED 50 %
Procedure: (§1) Die Applikation der getesteten Substanzen erfolgt 10 min vor Isoproterenol an Gruppen von 3 bis 5 Katzen pro Dosis. […] Blutdrucksenkende Wirkung an der. narkotisierten Ratte. Zur Testung der blutdrucksenkenden Wirkung erhalten Gruppen von 3 bis 5 männlichen Sprague-Dawley-Ratten (Gewicht: 230 - 280 g) in Urethan-Narkose (1,78 g/kg) i.p.) die Substanz intravenös appliziert. Die Messung des Blutdrucks in der A.carotis erfolgt über Statham-Transducer. Als ED 20 % wird die Dosis ermittelt, welche den mittleren Carotisdruck um 20 % senkt. • 3. Antihypertensive Wirkung an spontan hypertonen Ratten. Die Substanzen werden Gruppen von 8 männlichen spontan hypertonen Okamoto-Ratten (Gewicht: 280 - 350 g) oral appliziert. Vor und zwei Stunden nach der Applikation wird der systolische Blutdruck am Rattenschwanz unblutig mit Hilfe von Piezokristallaufnehmern gemessen. Als ED 20 % wird unter Berücksichtigung der Nerte unbehandelter Kontrolltiere die Dosis bestimmt, welche den systolischen Druck um 20 % senkt. • 4. […] Die Beobachtungsdauer beträgt 1 Woche. Die Berechnung der wirksamen Dosen (s. 1.-3.) erfolgte aus den linearen Beziehungen zwischen den Logarithmen der Dosen und der Wirkung mit Hilfe der Regressionsanalyse.

Maus = test: in vivo; conditions: Maus, i.p., observation 1 week; 10080 min
Procedure: as §1

narkotisierten Ratte = test: blood-pressure-lowering effect in the anaesthetised rat; conditions: for Blutdrucksenkende Wirkung ED 20 %: Urethan-Narkose, dose lowering blood pressure by 20 %; for Tiere gestorben: 10 mg/kg, dead animals of 6; for ED20: Rattus norvegicus, iv, read-out: Blutdrucksenkende Wirkung ED 20 %
Procedure: (§2) Die Applikation der getesteten Substanzen erfolgt 10 min vor Isoproterenol an Gruppen von 3 bis 5 Katzen pro Dosis. […] Blutdrucksenkende Wirkung an der. narkotisierten Ratte. Zur Testung der blutdrucksenkenden Wirkung erhalten Gruppen von 3 bis 5 männlichen Sprague-Dawley-Ratten (Gewicht: 230 - 280 g) in Urethan-Narkose (1,78 g/kg) i.p.) die Substanz intravenös appliziert. Die Messung des Blutdrucks in der A.carotis erfolgt über Statham-Transducer. Als ED 20 % wird die Dosis ermittelt, welche den mittleren Carotisdruck um 20 % senkt. • 3. Antihypertensive Wirkung an spontan hypertonen Ratten. Die Substanzen werden Gruppen von 8 männlichen spontan hypertonen Okamoto-Ratten (Gewicht: 280 - 350 g) oral appliziert. Vor und zwei Stunden nach der Applikation wird der systolische Blutdruck am Rattenschwanz unblutig mit Hilfe von Piezokristallaufnehmern gemessen. Als ED 20 % wird unter Berücksichtigung der Nerte unbehandelter Kontrolltiere die Dosis bestimmt, welche den systolischen Druck um 20 % senkt. • 4. Akute Toxizität an der Maus Zur Bestimmung der akuten Toxizität (LD 50) werden die Substanzen Gruppen von je 10 weiblichen NMRI-Mäusen (Gewicht: 19 - 20 g) intraperitoneal appliziert. Die Beobachtungsdauer beträgt 1 Woche. Die Berechnung der wirksamen Dosen (s. 1.-3.) erfolgte aus den linearen Beziehungen zwischen den Logarithmen der Dosen und der Wirkung mit Hilfe der Regressionsanalyse. Die LD 50 (4.) wurden mit Hilfe der Probit-Analyse bestimmt.

[2] = system: spontan hypertonen Ratten; test: antihypertensive effect in spontaneously hypertensive rats; type: in vivo, Okamoto-Ratten; conditions: spontan hypertone Ratten, oral
Procedure: as §2, with “Die LD 50 (4.) wurden mit Hilfe der Probit-Analyse bestimmt.” left out

in vivo = conditions: mouse, in vivo, ip
Procedure: as §1

Molecule	ß-Sympatholytische Wirkung R.W. (Relative Wirksamkeit) ([1]; Katze, i.v.)	Blutdrucksenkende Wirkung ED 20 % (narkotisierten Ratte; Ratte, i.v.)	Tiere gestorben (narkotisierten Ratte; Ratte, i.v.) [von 6]	ED50 [1] [mg/kg]	LD50 at 168 h (in vivo) [mg/kg]	ED20 (narkotisierten Ratte) [mg/kg]	other results
3-Äthyl-5-[2-(2-hydroxy-3-cyclopropylaminopropoxy)-styryl]-isoxazol [Verbindung 8]	0,9	0,83 mg/kg					ß-sympatholytische Wirksamkeit compared with Propranolol [1]: etwa wirkungsgleich; ß-Sympatholytische Wirkung ED 50 % ([1]; Katze, Hexobarbital-Narkose, i.v., dose inhibiting the isoproterenol heart-rate increase by 50 %): 0,12 mg/kg; Letalität LD 50 (Maus): 95 mg/kg
CC(C)NCC(O)COc1cccc2ccccc12 (centres unmarked) [Propranolol, reference compound]			2				Blutdrucksteigerung (narkotisierten Ratte; Ratte, i.v., bis 2,15 mg/kg): blutdrucksteigernd; Antihypertensive Wirkung ([2]; bis zu einer Dosis von 100 mg/kg): wirkungslos
Cc1cc(C=Cc2ccccc2OCC(O)CNC(C)C)on1 (centres unmarked) [Verbindung 6, 3-Methyl-5-[2-(2-hydroxy-3-isopropyl-aminopropoxy)-styryl]-isoxazol]	14,3			0.0077	108	0.65	
Cc1cc(C=Cc2ccccc2OCC(O)CNC(C)(C)C)on1 (centres unmarked) [Verbindung 7, 3-Methyl-5-[2-(2-hydroxy-3-tert.-butylaminopropoxy)-styryl]-isoxazol]	20,0	0,40 mg/kg	1	0.0055	123	0.4	ratio of the 10 mg/kg dose to the blood-pressure-lowering dose (0,4 mg/kg) (narkotisierten Ratte; Ratte, i.v.): 25 mal; ED20 ([2]; Rattus norvegicus, systolic pressure 2 h after dosing lowered by 20 %, read-out: Antihypertensive Wirkung ED 20 %): 14.5 mg/kg
CCc1cc(C=Cc2ccccc2OCC(O)CNC(C)(C)C)on1 (centres unmarked) [Verbindung 9, 3-Äthyl-5-[2-(2-hydroxy-3-tert.-butylaminopropoxy)-styryl]-isoxazol]	6,1				84	0.93	
C#CC(C)(C)NCC(O)COc1ccccc1C=Cc1cc(C)no1 (centres unmarked) [Verbindung 10]	6,5				247	1	
